What all share (type): cell-based
Series [1] has as its system Purpureocillium lilacinum spores. Kind of series: Spore viability (germination rate) of Purpureocillium lilacinum spores dispersed in fluid and stored at 30° C. How it is done:
(§1) 3 g of Purpureocillium lilacinum pure spore powder were transferred into a formulation vessel (IKA Type DT-20 mixing vessel with dispersion tool for Ultra Turrax) using a sterile spoon. 12 mL of fluid were added into the respective formulation vessel and dispersed using ultra turrax tube drive control for 1 min at 3000 rpm; change direction after 30 sec. After this 2.8 mL were transferred in four sample bottles (Wheaton Serum vial, Type I) leaving little headspace and closed tight using crimpneck caps (Macherey—Nagel type N 13). Afterwards all sample bottles were transferred to an incubator set at 30° C. and stored for a given time.
In regular intervals a sample was retrieved from the storage location and analyzed for spore viability. For this purpose, the original samples were thoroughly homogenized. Aliquots of 0.25 g or 250 μL of each sample were transferred into 50 mL falcon tubes. The tubes were filled up to 25 g using a sterile aqueous solution containing 2% Tween 80 and homogenized by vortexing to achieve the first dilution step (1:100 dilution). This dilution was used for further dilution and spotting on agar.
(§2) For these samples, an alternative dispersion/dilution method was applied where the oil phase was stripped from the spores first: 0.25 g or 250 μL of sample are weighted into a 2 mL Eppendorf tube, and 0.5 mL of 2% Tween 80 is added, and the mixture is transferred into an Eppendorf centrifuge where it is centrifuged for 1 min at 10.000 rpm. The supernatant (=upper oily phase) is discarded by using a pipette. […] 250 μL or 0.25 g of each sample were transferred into a sterile 50 mL Falcon tube. The tubes were filled up to 25 g using a sterile aqueous solution containing 2% Tween 80 and homogenized by vortexing to achieve the first dilution step (1:100 dilution). This dilution was used for further dilution and spotting on agar.
(§3) For evaluation of spore germination rate prepare a 1:30000 dilution based on the 1:100 dilution achieved by multiple automated dilution (pipetting robot, 96 well plate). Afterwards 12×12 cm agar plates were taken and spotted with 10 times 5 μL of each sample using an automated 12-Channel pipet. Wait until liquid is soaked up by agar and transfer agar plate to an incubator and incubate at 25° C. for 17 hours. Open the plate and place it under the microscope. Randomly chose one area per spot and record the number of germinated and non-germinated spores that are within the designated field. At least 200 spores per sample need to be evaluated. If needed count more than one field per spot.

The subject of series [2] is Beauveria bassiana spores. Put plainly: Spore viability (germination rate) of Beauveria bassiana spores dispersed in fluid and stored at 30° C. How it is done: as §1, with “1.5 g” for “3 g”, “of Beauveria bassiana” for “of Purpureocillium lilacinum”, “spoon. 13.5” for “spoon. 12”, “N 13)” for “N 13).”
(§4) In regular intervals a sample was retrieved from the storage location and analyzed for spore viability. Therefore the original samples were thoroughly homogenized. Aliquots of 0.25 g or 250 μL of each sample are transferred into 50 mL falcon tubes. The tubes were filled up to 25 g using a sterile aqueous solution containing 2% Tween 80 and homogenized by vortexing to achieve the first dilution step (1:100 dilution). This dilution was used for further dilution and spotting on agar.
as §2, with “phase is” for “phase was”, “sample are” for “sample were”, “dilution is” for “dilution was”
as §3, with “1:15000” for “1:30000”, “are” for “were”, “20°” for “25°”

Series [3] concerns Penicillium bilaii spores. Put plainly: Spore viability (germination rate) of Penicillium bilaii spores dispersed in fluid and stored at 30° C. How it is done: as §1, with “1.5 g” for “3 g”, “of Penicillium bilaii” for “of Purpureocillium lilacinum”, “spoon. 13.5” for “spoon. 12”, “N 13)” for “N 13).”
as §4
Not all samples mixed well or mixed at all in 2% Tween 80. For these samples, an alternative dispersion/dilution method was applied where the oil phase is stripped from the spores first: 0.25 g or 250 μL of sample are weighted into a 2 mL Eppendorf tube, and 0.5 mL of 2% Tween 80 is added, and the mixture is transferred into an Eppendorf centrifuge where it is centrifuged for 1 min at 10.000 rpm. The supernatant (=upper oily phase) is discarded by using a pipette. Afterwards 250 μL of Breakthru S 240 are added and the spores are well dispersed. 250 μL or 0.25 g of each sample are transferred into a sterile 50 mL Falcon tube. The tubes were filled up to 25 g using a sterile aqueous solution containing 2% Tween 80 and homogenized by vortexing to achieve the first dilution step (1:100 dilution). This dilution is used for further dilution and spotting on agar.
as §3, with “1:15000” for “1:30000”, “are” for “were”, “20°” for “25°”

[4] abbreviates: P. lilacinum spores in fluid, storage at 30° C., 12-15 d.
Where [5] appears, read: P. lilacinum spores in fluid, storage at 30° C., 27-28 d.
The mark [6] stands for this setting: P. lilacinum spores in fluid, storage at 30° C., 51-55 d.

Like-named read-outs stand apart in the source and are kept apart here. Marks after values point to notes of the source that are not given here.

For `CCCCCCCC/C=C\CCCCCCCC(=O)OCC(CC)CCCC` (centres unmarked) [Radialube 7130, 2-Ethylhexyl oleate], the “spore viability [%] after 2 w (12-15 d)” value in series [1] (setting [4]) amounted to 98.5%. Besides, the “spore viability [%] after 1 m (27-28 d)” value in series [1] (setting [5]) was determined as 94.3%. In addition, the “spore viability [%] after 2 m (51-55 d)” value in series [1] (setting [6]) worked out at 87.9%.

In the case of “Fatty acid monoglyceride diacetate [Radia 7909]”, in series [1], the “spore viability [%] after 3 m (87-92 d)” value is listed as 78.5%, the “spore viability [%] after 5-6 w (35-40 d)” value was found to be 96.5% and the “spore viability [%] at day 1” value came out at 98.1%. In series [2], the “spore viability [%] after 2 w (14 d)” value is listed as 11.5%, the “spore viability [%] after 5 w (35 d)” value came out at 18.1% and the “spore viability [%] at day 1” value was 75.1%. In series [3], the “spore viability [%] 3 m@30° C. (83-85 d)” value was found to be 42.0%, the “spore viability [%] 6 w@30° C. (41-43 d)” value is 75.6% and the “spore viability [%] initial (1-2 d)” value amounted to 90.6%.

Take “Neopentylglycol dicocoate [Radialube 7302]”: in series [2], the “spore viability [%] after 5 w (35 d)” value came out at 52.7%.

Consider Sorbitan trioleate [Radiasurf 7355], for which, in series [1], the “spore viability [%] after 3 m (87-92 d)” value amounted to 64.1%, the “spore viability [%] after 5-6 w (35-40 d)” value was 96.4% and the “spore viability [%] at day 1” value was found to be 98.3%. Besides, in series [2], the “spore viability [%] after 2 w (14 d)” value is on record as 71.3% and the “spore viability [%] after 5 w (35 d)” value was determined as 60.4%.

As for “Trimethylolpropane Tricocoate [Radialube 7359]”, in series [1], the “spore viability [%] after 1 m (27-28 d)” value amounted to 87.8%, the “spore viability [%] after 2 m (51-55 d)” value turned out to be 87.5%, the “spore viability [%] after 2 w (12-15 d)” value was 60.6^# % and the “spore viability [%] at day 1” value is 58.0^# %. Moreover, the “spore viability [%] taken after 7 m of storage” value in series [1] is on record as 87.3* %.

For “Trimethylolpropane Triisostearate [Radia 7380]”, the “spore viability [%] after 2 w (12-15 d)” value in series [1] (setting [4]) turned out to be 96.5%. In series [1] (setting [5]), the “spore viability [%] after 1 m (27-28 d)” value was determined as 89.3%. The “spore viability [%] after 2 m (51-55 d)” value in series [1] (setting [6]) was 86.0%.

As for “Trimethylolpropane Trioleate [Radialube 7361]”, the “spore viability [%] after 2 w (12-15 d)” value in series [1] (setting [4]) turned out to be 97.2%. Further, the “spore viability [%] after 1 m (27-28 d)” value in series [1] (setting [5]) turned out to be 92.3%. Besides, in series [1] (setting [6]), the “spore viability [%] after 2 m (51-55 d)” value was determined as 85.4%.

The values above are taken from patent publication US20260033491A1, “FUNGAL SPORE FORMULATIONS INCLUDING CARRIER FLUIDS” (priority 2018, published 2026).
